Literature values, collected in patent US8455508B2, “Sustained release parenteral formulations of buprenorphine” (priority 2007, dated 2013).

Conditions: in oil

Compound: CCCCCCCCCC(=O)Oc1ccc2c3c1OC1C4(OC)CCC5(CC4C(C)(O)C(C)(C)C)C(C2)N(CC2CC2)CCC315 (stereo not shown) [buprenorphine decanoate]
- duration of action relative to buprenorphine HCl in saline: 14 fold
